In patent US5368707A, “Convenient determination of trace lead in whole blood and other fluids” (priority 1993, dated 1994):

Tests used:
isocitrate dehydrogenase [1] = molecular target: T1, isocitrate dehydrogenase (Sus scrofa, UniProt P33198); assay: Amperometric lead inhibition of ICDH in homogeneous aqueous solution (Example 1); format: biochemical, pig; conditions: pH 8.5 Tris; for Current: 0 V
T1 construct: purchased Sigma, St. Louis, Mo; ICD Type VI
T1 sequence (P33198 9-421): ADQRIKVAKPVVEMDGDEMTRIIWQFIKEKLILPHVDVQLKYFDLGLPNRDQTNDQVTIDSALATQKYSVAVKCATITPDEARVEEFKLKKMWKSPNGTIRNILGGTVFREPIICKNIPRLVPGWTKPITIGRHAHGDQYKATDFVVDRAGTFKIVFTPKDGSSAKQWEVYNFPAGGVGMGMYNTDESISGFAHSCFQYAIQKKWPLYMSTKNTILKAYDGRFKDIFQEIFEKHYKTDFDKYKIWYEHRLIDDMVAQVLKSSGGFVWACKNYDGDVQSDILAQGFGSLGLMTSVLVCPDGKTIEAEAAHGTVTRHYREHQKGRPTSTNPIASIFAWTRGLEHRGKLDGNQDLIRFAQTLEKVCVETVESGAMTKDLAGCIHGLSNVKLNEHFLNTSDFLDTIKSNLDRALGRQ
Description: Pig heart NADP-linked isocitric dehydrogenase (ICD, EC 1.1.1.42), an oxidoreductase, is sensitive to trace levels of lead ion as low as 1 μg/dl. […] In fact, at low concentrations of activator, e.g., <200 ppb Mn^++, the activity of ICD is proportional to Mn^++ and may be used to determine activator concentration (Guilbault, 1970). Inactivation by inhibitors is useful for determining inhibitor concentration. Specificity of enzymes for activators, or inhibitors, is not as great as for the natural substrate of the enzyme, but in some cases inhibitor concentration may be selectively determined. Silver and mercury have been determined in the presence of each other using isocitrate dehydrogenase (Mealor and Townshend, 1968). However, until now, there has been no satisfactory rapid amperometric method to determine lead ion based on ICD inhibition, much less a simple method to determine low lead ion concentrations in whole blood.
The following example illustrates determination of trace amounts of lead ion in aqueous medium through the inhibition of isocitrate dehydrogenase (ICDH) in homogeneous solution.
Commercially available ICDH (Sigma Chemical Company, St. Louis, Mo.) typically contains considerable amounts of sulfate that interferes with lead ion inhibition of ICDH. Dialysis of ICDH against low ionic strength phosphate buffer caused loss of its activity, which was restored by addition of Mn^2+.
A glassy carbon rod of 3 mm diameter was wrapped in teflon tubing as working electrode and surrounded with a layer of Pt foil as the counter electrode with a silver wire placed in between as the reference electrode. At least one layer of teflon was inserted between two of the three electrodes. All three electrode surfaces were on the same plane. Tubing was fixed on the top of the coplanar electrode surface with an O-ring, forming a microcell of 100-200 μl in volume.
To the microcell was added in sequence: 100 μl 50 mM pH 8.5 Tris buffer, ca. 0.3-0.4 units ICDH and, after 15 min, 5 μl 25 mM NMP-MS, 5 μl 60 mM NADP. The background current was measured at 0 V. 10 μl of 0.5M isocitrate was added and the current measured again. The difference in the two signals was taken as due to the oxidation of isocitrate catalyzed by ICDH.
To measure lead inhibition of ICDH, lead ion was added to the above solution after addition of ICDH but 15 min prior to the addition of NMP-MS and NADP. The current difference with isocitrate was due to inhibition of ICDH by the added lead. FIG. 3 indicates the sensitivity of the electrode to lead ion concentrations in the submicromolar range.

isocitrate dehydrogenase [2] = molecular target: T1, isocitrate dehydrogenase; assay: ICDH inhibition by lead in the presence of EDTA with or without CoSO4 (Example 8); format: biochemical, pig; conditions: 2 mM EDTA; for Inhibition: 2.5 mM CoSO4
Text: A major problem in the measurement of lead in blood is the interference by various blood proteins and, as in the majority of clinical samples, the presence of excess amounts of EDTA. The inventors have discovered that lead chelated with EDTA is exchangeable with cobalt(II). As shown in this example, lead Pb(II) is displaced from EDTA by cobalt(II) and detected by its inhibition of isocitrate dehydrogenase (ICDH).
Micromolor concentrations of lead were detected by ICDH inhibition in the presence of 2 mM EDTA and 2.5 mM CoSO4.

## [Pb+2] [lead ion]
Isocitrate dehydrogenase [1]; 1.89 μM Pb++
  % inhibition: 85.3%
  Current: 218 nA
Isocitrate dehydrogenase [1]; 90.9 μM Pb++
  % inhibition: 98.2%
  Current: 26 nA
Isocitrate dehydrogenase [2]; 12 μM lead
  Inhibition: 23%
Isocitrate dehydrogenase [2]; 36 μM lead
  Inhibition: 32%
Isocitrate dehydrogenase [2]; 121 μM lead
  Inhibition: 47%
Isocitrate dehydrogenase [2]; absence of CoSO4
  Inhibition (in words): no inhibition was observed
